Patent US20100093532A1, “Pesticidal Mixtures Comprising Phenylsemicarbazone and Clothianidin” (BASF SE, priority 2007, published 2010)

System: Mediterranean fruitfly (Ceratitis capitata)
Test: Control of Mediterranean fruitfly, egg and larval mortality in 96-well microtiter plates with insect diet
Type: in vivo
Details: sprayed onto insect diet with C. capitata eggs, 5 days at 28±1° C., 80±5% RH, egg and larval mortality visually assessed
Procedure: For evaluating control of Mediterranean fruitfly (Ceratitis capitata) the test unit consisted of 96-well-microtiter plates containing an insect diet and 50-80 C. capitata eggs. The compounds or mixtures were formulated using a solution containing 75% water and 25% DMSO. Different concentrations of formulated compounds or mixtures were sprayed onto the insect diet at 5 μl, using a custom built micro atomizer, at two replications.
For experimental mixtures in these tests identical volumes of both mixing partners at the desired concentrations respectively, were mixed together.
After application, microtiter plates were incubated at 28±1° C., 80±5% RH (relative humidity) for 5 days. Egg and larval mortality was then visually assessed.

SMILES | Average Control (%) (Metaflumizone 20 ppm) | Average Control (%) (Clothianidin 2 ppm)
N#Cc1ccc(CC(=NNC(=O)Nc2ccc(OC(F)(F)F)cc2)c2cccc(C(F)(F)F)c2)cc1 (racemic) [Metaflumizone, 2-[2-(4-cyanophenyl)-1-[3-(trifluoromethyl)phenyl]ethylidene]-N-[4-(trifluoromethoxy)phenyl]hydrazinecarboxamide] | 0 | 
CN/C(=N\[N+](=O)[O-])NCc1cnc(Cl)s1 [Clothianidin, (E)-1-(2-chloro-1,3-thiazol-5-ylmethyl)-3-methyl-2-nitroguanidine] |  | 0
